For this assay, the system named is microfilariae of Dirofilaria immitis. Nature of the assay: Dirofilaria immitis, Microfilaria (DiMF) In vitro Assay. It counts as cell-based. As to conditions: 72 h, read-out: DiMF Minimum Effective Dose (MED), approximately 72 hours incubation, microfilariae assessed for survival or paralysis.

With `CC(C)C[C@H]1C(=O)O[C@H](Cc2ccc(Cn3ccc(C#N)n3)cc2)C(=O)N(C)[C@@H](CC(C)C)C(=O)O[C@H](C)C(=O)N(C)[C@@H](CC(C)C)C(=O)O[C@H](Cc2ccc(Cn3ccc(C#N)n3)cc2)C(=O)N(C)[C@@H](CC(C)C)C(=O)O[C@H](C)C(=O)N1C` [Example 1b-103, 1,1′-(((((2R,5S,8R,11S,14R,17S,20R,23S)-5,11,17,23-tetraisobutyl-4,8,10,16,20,22-hexamethyl-3,6,9,12,15,18,21,24-octaoxo-1,7,13,19-tetraoxa-4,10,16,22-tetraazacyclotetracosane-2,14-diyl)bis(methylene))bis(4,1-phenylene))bis(methylene))bis(1H-pyrazole-3-carbonitrile)], the minimal effective concentration lay in the range of 0.001 to 0.01 µM.
As for `CC(C)C[C@H]1C(=O)O[C@H](Cc2ccc(Cn3ccc(N4CCOCC4)n3)cc2)C(=O)N(C)[C@@H](CC(C)C)C(=O)O[C@H](C)C(=O)N(C)[C@@H](CC(C)C)C(=O)O[C@H](Cc2ccc(Cn3ccc(N4CCOCC4)n3)cc2)C(=O)N(C)[C@@H](CC(C)C)C(=O)O[C@H](C)C(=O)N1C` [Example 1b-105, (3S,6R,9S,12R,15S,18R,21S,24R)-3,9,15,21-tetraisobutyl-4,6,10,16,18,22-hexamethyl-12,24-bis(4-((3-morpholino-1H-pyrazol-1-yl)methyl)benzyl)-1,7,13,19-tetraoxa-4,10,16,22-tetraazacyclotetracosan-2,5,8,11,14,17,20,23-octaone], the minimal effective concentration fell in the range of 0.001 to 0.01 µM.
The result for `CC(C)C[C@H]1C(=O)O[C@H](Cc2ccc(Cn3ccc(C4CCC4)n3)cc2)C(=O)N(C)[C@@H](CC(C)C)C(=O)O[C@H](C)C(=O)N(C)[C@@H](CC(C)C)C(=O)O[C@H](Cc2ccc(Cn3ccc(C4CCC4)n3)cc2)C(=O)N(C)[C@@H](CC(C)C)C(=O)O[C@H](C)C(=O)N1C` [Example 1b-106, (3S,6R,9S,12R,15S,18R,21S,24R)-6,18-bis(4-((3-cyclobutyl-1H-pyrazol-1-yl)methyl)benzyl)-3,9,15,21-tetraisobutyl-4,10,12,16,22,24-hexamethyl-1,7,13,19-tetraoxa-4,10,16,22-tetraazacyclotetracosan-2,5,8,11,14,17,20,23-octaone] reads 0.01 to 0.1 µM; that for `CC(C)C[C@H]1C(=O)O[C@H](Cc2ccc(Cn3ccc(-c4ccoc4)n3)cc2)C(=O)N(C)[C@@H](CC(C)C)C(=O)O[C@H](C)C(=O)N(C)[C@@H](CC(C)C)C(=O)O[C@H](Cc2ccc(Cn3ccc(-c4ccoc4)n3)cc2)C(=O)N(C)[C@@H](CC(C)C)C(=O)O[C@H](C)C(=O)N1C` [Example 1b-111, (3S,6R,9S,12R,15S,18R,21S,24R)-6,18-bis(4-((3-(furan-3-yl)-1H-pyrazol-1-yl)methyl)benzyl)-3,9,15,21-tetraisobutyl-4,10,12,16,22,24-hexamethyl-1,7,13,19-tetraoxa-4,10,16,22-tetraazacyclotetracosan-2,5,8,11,14,17,20,23-octaone], 0.01 to 0.1 µM.
The result for `CC(C)C[C@H]1C(=O)O[C@H](Cc2ccc(Cn3cc(C4CCOCC4)cn3)cc2)C(=O)N(C)[C@@H](CC(C)C)C(=O)O[C@H](C)C(=O)N(C)[C@@H](CC(C)C)C(=O)O[C@H](Cc2ccc(Cn3cc(C4CCOCC4)cn3)cc2)C(=O)N(C)[C@@H](CC(C)C)C(=O)O[C@H](C)C(=O)N1C` [Example 1b-116, (3S,6R,9S,12R,15S,18R,21S,24R)-3,9,15,21-tetraisobutyl-4,6,10,16,18,22-hexamethyl-12,24-bis(4-((4-(tetrahydro-2H-pyran-4-yl)-1H-pyrazol-1-yl)methyl)benzyl)-1,7,13,19-tetraoxa-4,10,16,22-tetraazacyclotetracosan-2,5,8,11,14,17,20,23-octaone] reads 0.01 to 0.1 µM.
Regarding `Cc1nn(Cc2ccc(C[C@H]3OC(=O)[C@H](CC(C)C)N(C)C(=O)[C@@H](C)OC(=O)[C@H](CC(C)C)N(C)C(=O)[C@@H](Cc4ccc(Cn5nc(C)c(C#N)c5C)cc4)OC(=O)[C@H](CC(C)C)N(C)C(=O)[C@@H](C)OC(=O)[C@H](CC(C)C)N(C)C3=O)cc2)c(C)c1C#N` [Example 1b-117, 1,1′-(((((2R,5S,8R,11S,14R,17S,20R,23S)-5,11,17,23-tetraisobutyl-4,8,10,16,20,22-hexamethyl-3,6,9,12,15,18,21,24-octaoxo-1,7,13,19-tetraoxa-4,10,16,22-tetraazacyclotetracosane-2,14-diyl)bis(methylene))bis(4,1-phenylene))bis(methylene))bis(3,5-dimethyl-1H-pyrazole-4-carbonitrile)], the minimal effective concentration lay in the range of 0.01 to 0.1 µM.
The figure for `CC(C)C[C@H]1C(=O)O[C@H](Cc2ccc(Cn3ccc(-c4ccccn4)n3)cc2)C(=O)N(C)[C@@H](CC(C)C)C(=O)O[C@H](C)C(=O)N(C)[C@@H](CC(C)C)C(=O)O[C@H](Cc2ccc(Cn3ccc(-c4ccccn4)n3)cc2)C(=O)N(C)[C@@H](CC(C)C)C(=O)O[C@H](C)C(=O)N1C` [Example 1b-120, (3S,6R,9S,12R,15S,18R,21S,24R)-3,9,15,21-tetraisobutyl-4,6,10,16,18,22-hexamethyl-12,24-bis(4-((3-(pyridin-2-yl)-1H-pyrazol-1-yl)methyl)benzyl)-1,7,13,19-tetraoxa-4,10,16,22-tetraazacyclotetracosan-2,5,8,11,14,17,20,23-octaone] is 0.01 to 0.1 µM; for `Cc1c(CO)nn(Cc2ccc(C[C@H]3OC(=O)[C@H](CC(C)C)N(C)C(=O)[C@@H](C)OC(=O)[C@H](CC(C)C)N(C)C(=O)[C@@H](Cc4ccc(Cn5nc(CO)c(C)c5C(F)(F)F)cc4)OC(=O)[C@H](CC(C)C)N(C)C(=O)[C@@H](C)OC(=O)[C@H](CC(C)C)N(C)C3=O)cc2)c1C(F)(F)F` [Example 1b-124, (3S,6R,9S,12R,15S,18R,21S,24R)-6,18-bis(4-((3-(hydroxymethyl)-4-methyl-5-(trifluoromethyl)-1H-pyrazol-1-yl)methyl)benzyl)-3,9,15,21-tetraisobutyl-4,10,12,16,22,24-hexamethyl-1,7,13,19-tetraoxa-4,10,16,22-tetraazacyclotetracosan-2,5,8,11,14,17,20,23-octaone] it is 0.01 to 0.1 µM.
For the compound `CCc1nn(Cc2ccc(C[C@H]3OC(=O)[C@H](CC(C)C)N(C)C(=O)[C@@H](C)OC(=O)[C@H](CC(C)C)N(C)C(=O)[C@@H](Cc4ccc(Cn5nc(CC)c(N)c5CC)cc4)OC(=O)[C@H](CC(C)C)N(C)C(=O)[C@@H](C)OC(=O)[C@H](CC(C)C)N(C)C3=O)cc2)c(CC)c1N` [Example 1b-133, (3S,6R,9S,12R,15S,18R,21S,24R)-6,18-bis(4-((4-amino-3,5-diethyl-1H-pyrazol-1-yl)methyl)benzyl)-3,9,15,21-tetraisobutyl-4,10,12,16,22,24-hexamethyl-1,7,13,19-tetraoxa-4,10,16,22-tetraazacyclotetracosan-2,5,8,11,14,17,20,23-octaone], the minimal effective concentration fell in the range of 0.01 to 0.1 µM.
The result for `Cc1nn(Cc2ccc(C[C@H]3OC(=O)[C@H](CC(C)C)N(C)C(=O)[C@@H](C)OC(=O)[C@H](CC(C)C)N(C)C(=O)[C@@H](Cc4ccc(Cn5cc(C#N)c(C)n5)cc4)OC(=O)[C@H](CC(C)C)N(C)C(=O)[C@@H](C)OC(=O)[C@H](CC(C)C)N(C)C3=O)cc2)cc1C#N` [Example 1b-135, 1,1′-(((((2R,5S,8R,11S,14R,17S,20R,23S)-5,11,17,23-tetraisobutyl-4,8,10,16,20,22-hexamethyl-3,6,9,12,15,18,21,24-octaoxo-1,7,13,19-tetraoxa-4,10,16,22-tetraazacyclotetracosane-2,14-diyl)bis(methylene))bis(4,1-phenylene))bis(methylene))bis(3-methyl-1H-pyrazole-4-carbonitrile)] reads 0.001 to 0.01 µM.
The result for `CC(C)C[C@H]1C(=O)O[C@H](Cc2ccc(Cn3ccc(-c4ccncc4)n3)cc2)C(=O)N(C)[C@@H](CC(C)C)C(=O)O[C@H](C)C(=O)N(C)[C@@H](CC(C)C)C(=O)O[C@H](Cc2ccc(Cn3ccc(-c4ccncc4)n3)cc2)C(=O)N(C)[C@@H](CC(C)C)C(=O)O[C@H](C)C(=O)N1C` [Example 1b-138, (3S,6R,9S,12R,15S,18R,21S,24R)-3,9,15,21-tetraisobutyl-4,6,10,16,18,22-hexamethyl-12,24-bis(4-((3-(pyridin-4-yl)-1H-pyrazol-1-yl)methyl)benzyl)-1,7,13,19-tetraoxa-4,10,16,22-tetraazacyclotetracosan-2,5,8,11,14,17,20,23-octaone] reads 0.01 to 0.1 µM.
The result for `CC(C)C[C@H]1C(=O)O[C@H](Cc2ccc(Cn3ccc(-c4cccnc4)n3)cc2)C(=O)N(C)[C@@H](CC(C)C)C(=O)O[C@H](C)C(=O)N(C)[C@@H](CC(C)C)C(=O)O[C@H](Cc2ccc(Cn3ccc(-c4cccnc4)n3)cc2)C(=O)N(C)[C@@H](CC(C)C)C(=O)O[C@H](C)C(=O)N1C` [Example 1b-139, (3S,6R,9S,12R,15S,18R,21S,24R)-3,9,15,21-tetraisobutyl-4,6,10,16,18,22-hexamethyl-12,24-bis(4-((3-(pyridin-3-yl)-1H-pyrazol-1-yl)methyl)benzyl)-1,7,13,19-tetraoxa-4,10,16,22-tetraazacyclotetracosan-2,5,8,11,14,17,20,23-octaone] reads 0.01 to 0.1 µM; that for `CC(C)C[C@H]1C(=O)O[C@H](Cc2ccc(Cn3cc(OC(F)F)cn3)cc2)C(=O)N(C)[C@@H](CC(C)C)C(=O)O[C@H](C)C(=O)N(C)[C@@H](CC(C)C)C(=O)O[C@H](Cc2ccc(Cn3cc(OC(F)F)cn3)cc2)C(=O)N(C)[C@@H](CC(C)C)C(=O)O[C@H](C)C(=O)N1C` [Example 1b-140, (3S,6R,9S,12R,15S,18R,21S,24R)-6,18-bis(4-((4-(difluoromethoxy)-1H-pyrazol-1-yl)methyl)benzyl)-3,9,15,21-tetraisobutyl-4,10,12,16,22,24-hexamethyl-1,7,13,19-tetraoxa-4,10,16,22-tetraazacyclotetracosan-2,5,8,11,14,17,20,23-octaone], 0.01 to 0.1 µM.

The values are drawn from patent US11331369B2, “Endoparasitic depsipeptides” (Zoetis Services LLC, priority 2017, dated 2022).
